Molecules are shown by their SMILES. pIC50, pKd: −log10 of the molar value. Bounds are passed on as bounds.

A word on the pIC50: it is the negative decadic logarithm of the IC50, by convention in mol/L. Broadly, the pKd is the negative decadic logarithm of the Kd, by convention in mol/L. Read a low pKd as a high Kd.

Series [1] addresses Serine/threonine-protein kinase pim-3 (Homo sapiens, UniProt Q86V86). Briefly: Binding affinity to wild-type human partial length PIM3 (G16 to A317 residues) expressed in bacterial expression system assessed as residual binding level at 10 uM by active-site directed competition binding assay based Kinomescan method relative to control.
A short description of series [2]: Toxicity in zebrafish embryos assessed as induction of necrosis by measuring unaffected embryos level at 14 uM after 72 hrs (reference value: 100%). More on the design: species or system Danio rerio. The conditions noted are these: in vivo.
The nature of series [3]: Toxicity in zebrafish embryos assessed as survival at 14 uM after 72 hrs (reference value: 95%). Details: species or system Danio rerio; call rule not given here. The conditions noted are these: in vivo.
For series [4], the target named is Dual specificity tyrosine-phosphorylation-regulated kinase 1A (Homo sapiens, UniProt Q13627). Put plainly: Binding affinity to wild-type human partial length DYRK1A (H129 to S509 residues) expressed in mammalian expression system assessed as residual binding level at 10 uM by active-site directed competition binding assay based Kinomescan method relative to control.

Series [5] deals with T1, Mitogen-activated protein kinase kinase kinase kinase 2 (Homo sapiens) (UniProt Q12851).
T1 sequence (whole entry): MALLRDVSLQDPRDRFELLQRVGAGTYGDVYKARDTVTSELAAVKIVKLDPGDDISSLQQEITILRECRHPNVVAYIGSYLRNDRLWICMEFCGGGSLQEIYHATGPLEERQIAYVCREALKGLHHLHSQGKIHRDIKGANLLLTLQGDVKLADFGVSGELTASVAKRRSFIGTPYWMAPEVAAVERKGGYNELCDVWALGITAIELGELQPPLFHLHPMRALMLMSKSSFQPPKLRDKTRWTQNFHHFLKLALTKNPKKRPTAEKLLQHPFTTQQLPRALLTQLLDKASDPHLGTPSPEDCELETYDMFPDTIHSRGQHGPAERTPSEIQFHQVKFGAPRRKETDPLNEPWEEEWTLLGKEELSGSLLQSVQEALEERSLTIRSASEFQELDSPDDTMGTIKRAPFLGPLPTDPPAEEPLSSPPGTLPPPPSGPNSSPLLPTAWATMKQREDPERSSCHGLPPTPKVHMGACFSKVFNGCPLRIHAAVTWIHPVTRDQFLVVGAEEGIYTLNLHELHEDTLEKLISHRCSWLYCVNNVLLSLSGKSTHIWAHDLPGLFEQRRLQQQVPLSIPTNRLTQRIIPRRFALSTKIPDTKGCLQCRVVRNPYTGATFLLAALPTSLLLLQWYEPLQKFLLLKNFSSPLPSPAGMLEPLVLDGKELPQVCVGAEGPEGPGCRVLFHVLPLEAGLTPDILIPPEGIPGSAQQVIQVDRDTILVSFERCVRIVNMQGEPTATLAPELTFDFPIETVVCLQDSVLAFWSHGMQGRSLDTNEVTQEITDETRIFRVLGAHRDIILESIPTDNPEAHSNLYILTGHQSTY
Briefly: Inhibition of GCK (unknown origin) assessed as residual enzyme activity at 1 uM by [33P]-ATP filter binding kinase assay relative to control.

The test system of a further series is A673. Briefly: Cytotoxicity in human A673 cells assessed as reduction in cell viability incubated for 72 hrs by SRB assay. The conditions noted are these: A673, 72 h.
In series [6] the target is Sodium-dependent noradrenaline transporter (Homo sapiens, UniProt P23975). Put plainly: Inhibition of [3H]nisoxetine binding to human recombinant NET incubated for 120 mins by scintillation counting method. As to conditions: 2 h.
A short description of series [7]: Toxicity in zebrafish embryos assessed as induction of heart edema by measuring unaffected embryos level at 1.4 uM after 72 hrs (reference value: 100%). The class given is tissue-based, Danio rerio. As to conditions: in vivo.
Series [8] has as its target Serine/threonine-protein kinase SIK3 (Homo sapiens, UniProt Q9Y2K2). Briefly: Binding affinity to wild-type human partial length SIK3 (A90 to L395 residues) expressed in mammalian expression system assessed as residual binding level at 10 uM by active-site directed competition binding assay based Kinomescan method relative to control.
Series [9] can be described thus: Toxicity in zebrafish embryos assessed as induction of necrosis by measuring unaffected embryos level at 1.4 uM after 72 hrs (reference value: 100%). More on the design: species or system Danio rerio. As to conditions: in vivo.
The next series has as its system BT-20. Put plainly: Cytotoxicity in human BT20 cells assessed as reduction in cell viability incubated for 72 hrs by SRB assay. As to conditions: BT-20, 72 h.
In series [10] the target is Myosin light chain kinase family member 4 (Homo sapiens, UniProt Q86YV6). Briefly: Binding affinity to wild-type human partial length MYLK4 (V79 to S380 residues) expressed in bacterial expression system by active-site directed competition binding assay based Kinomescan method.
Series [11] can be described thus: Unbound fraction in human plasma at 5 uM incubated for 6 hrs at 37 degC by LC-MS analysis based equilibrium dialysis. The class given is ADME, cell-free. (In general: In equilibrium dialysis only unbound substance equilibrates across the membrane.)
The next series concerns SK-BR-3. Briefly: Cytotoxicity in human SK-BR-3 cells assessed as reduction in cell viability incubated for 72 hrs by SRB assay. As to conditions: SK-BR-3, 72 h.
The subject of another series is MDA-MB-436. Briefly: Cytotoxicity in human MDA-MB-436 cells assessed as reduction in cell viability incubated for 72 hrs by SRB assay. The conditions noted are these: MDA-MB-436, 72 h. (Sulforhodamine B stains cellular protein and so reports cell mass.)
The nature of series [12]: Toxicity in zebrafish embryos assessed as induction of tail degeneration by measuring unaffected embryos level at 14 uM after 72 hrs (reference value: 100%). The class given is tissue-based, Danio rerio. The conditions noted are these: in vivo.
Series [13] in a line: Toxicity in zebrafish embryos assessed as survival at 140 uM after 72 hrs (reference value: 95%). Details: species or system Danio rerio. The conditions noted are these: in vivo.
Series [14] deals with Serine/threonine-protein kinase pim-2 (Homo sapiens, UniProt Q9P1W9). Briefly: Binding affinity to wild-type human partial length PIM2 (M1 to E291 residues) expressed in bacterial expression system assessed as residual binding level at 10 uM by active-site directed competition binding assay based Kinomescan method.
Series [15] in a line: Toxicity in zebrafish embryos assessed as survival at 0.1 uM after 72 hrs (reference value: 95%). Details: species or system Danio rerio. As to conditions: in vivo.
Series [16] deals with Serine/threonine-protein kinase pim-1 (Homo sapiens, UniProt P11309). Briefly: Inhibition of PIM1 (unknown origin) assessed as residual enzyme activity at 1 uM by [33P]-ATP filter binding kinase assay relative to control.
In series [17] the target is Mitogen-activated protein kinase kinase kinase 11 (Homo sapiens, UniProt Q16584). Put plainly: Inhibition of MLK3 (unknown origin) assessed as residual enzyme activity at 1 uM by [33P]-ATP filter binding kinase assay relative to control.
Mitogen-activated protein kinase kinase kinase 11, sequence (Q16584 whole entry, looked up): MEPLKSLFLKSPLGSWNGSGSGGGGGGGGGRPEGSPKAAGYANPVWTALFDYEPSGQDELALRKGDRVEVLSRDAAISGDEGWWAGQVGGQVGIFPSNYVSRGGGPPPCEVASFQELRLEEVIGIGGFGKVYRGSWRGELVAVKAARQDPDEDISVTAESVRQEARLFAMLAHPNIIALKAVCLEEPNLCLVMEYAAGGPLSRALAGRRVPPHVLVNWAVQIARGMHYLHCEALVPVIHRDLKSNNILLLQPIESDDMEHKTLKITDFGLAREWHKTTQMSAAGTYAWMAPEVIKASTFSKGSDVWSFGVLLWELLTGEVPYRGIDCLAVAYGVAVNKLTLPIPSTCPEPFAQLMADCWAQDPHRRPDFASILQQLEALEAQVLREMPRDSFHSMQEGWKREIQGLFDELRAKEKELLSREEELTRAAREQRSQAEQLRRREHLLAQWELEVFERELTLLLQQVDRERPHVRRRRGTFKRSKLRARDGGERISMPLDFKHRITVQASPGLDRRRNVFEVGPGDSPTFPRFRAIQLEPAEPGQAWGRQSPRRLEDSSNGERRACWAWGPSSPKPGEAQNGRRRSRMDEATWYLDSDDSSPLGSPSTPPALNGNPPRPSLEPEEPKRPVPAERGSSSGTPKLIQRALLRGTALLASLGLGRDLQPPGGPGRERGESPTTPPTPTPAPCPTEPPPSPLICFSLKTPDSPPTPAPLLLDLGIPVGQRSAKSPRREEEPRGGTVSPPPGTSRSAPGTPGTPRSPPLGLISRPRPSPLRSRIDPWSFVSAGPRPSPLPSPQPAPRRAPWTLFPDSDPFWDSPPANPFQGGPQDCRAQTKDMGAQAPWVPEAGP

Serine/threonine-protein kinase pim-2, sequence (Q9P1W9 whole entry, looked up, the tested form may be a part): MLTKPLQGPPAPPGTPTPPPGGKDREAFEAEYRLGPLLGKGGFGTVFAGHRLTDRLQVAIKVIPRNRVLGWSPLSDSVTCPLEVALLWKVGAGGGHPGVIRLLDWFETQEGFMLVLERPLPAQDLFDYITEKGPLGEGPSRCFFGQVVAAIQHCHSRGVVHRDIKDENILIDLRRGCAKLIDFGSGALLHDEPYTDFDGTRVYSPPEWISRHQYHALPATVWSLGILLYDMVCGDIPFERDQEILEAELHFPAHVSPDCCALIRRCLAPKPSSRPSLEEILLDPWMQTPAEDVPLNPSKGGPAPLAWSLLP
Myosin light chain kinase family member 4, sequence (Q86YV6 whole entry, the tested form may be a part): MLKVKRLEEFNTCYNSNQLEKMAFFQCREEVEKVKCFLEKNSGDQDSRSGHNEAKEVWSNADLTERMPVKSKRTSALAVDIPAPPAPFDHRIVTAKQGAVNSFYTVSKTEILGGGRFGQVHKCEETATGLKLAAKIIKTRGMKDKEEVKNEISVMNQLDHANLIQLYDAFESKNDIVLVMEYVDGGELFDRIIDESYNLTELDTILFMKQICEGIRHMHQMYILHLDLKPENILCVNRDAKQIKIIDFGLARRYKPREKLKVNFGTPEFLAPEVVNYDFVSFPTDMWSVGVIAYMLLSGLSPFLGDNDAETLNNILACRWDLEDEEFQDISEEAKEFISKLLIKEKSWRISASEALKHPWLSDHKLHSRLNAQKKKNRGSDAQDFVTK
Serine/threonine-protein kinase pim-1, sequence (P11309 whole entry, looked up): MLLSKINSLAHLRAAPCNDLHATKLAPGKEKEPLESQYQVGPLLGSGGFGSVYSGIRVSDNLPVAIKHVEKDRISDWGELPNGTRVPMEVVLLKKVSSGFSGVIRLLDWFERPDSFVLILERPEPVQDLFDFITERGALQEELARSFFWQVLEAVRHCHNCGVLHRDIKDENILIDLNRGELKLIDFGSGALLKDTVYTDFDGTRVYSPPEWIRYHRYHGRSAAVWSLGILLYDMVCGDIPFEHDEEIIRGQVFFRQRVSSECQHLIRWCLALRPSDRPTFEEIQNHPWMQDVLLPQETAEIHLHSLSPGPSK
Serine/threonine-protein kinase SIK3, sequence (Q9Y2K2 whole entry, looked up, the tested form may be a part): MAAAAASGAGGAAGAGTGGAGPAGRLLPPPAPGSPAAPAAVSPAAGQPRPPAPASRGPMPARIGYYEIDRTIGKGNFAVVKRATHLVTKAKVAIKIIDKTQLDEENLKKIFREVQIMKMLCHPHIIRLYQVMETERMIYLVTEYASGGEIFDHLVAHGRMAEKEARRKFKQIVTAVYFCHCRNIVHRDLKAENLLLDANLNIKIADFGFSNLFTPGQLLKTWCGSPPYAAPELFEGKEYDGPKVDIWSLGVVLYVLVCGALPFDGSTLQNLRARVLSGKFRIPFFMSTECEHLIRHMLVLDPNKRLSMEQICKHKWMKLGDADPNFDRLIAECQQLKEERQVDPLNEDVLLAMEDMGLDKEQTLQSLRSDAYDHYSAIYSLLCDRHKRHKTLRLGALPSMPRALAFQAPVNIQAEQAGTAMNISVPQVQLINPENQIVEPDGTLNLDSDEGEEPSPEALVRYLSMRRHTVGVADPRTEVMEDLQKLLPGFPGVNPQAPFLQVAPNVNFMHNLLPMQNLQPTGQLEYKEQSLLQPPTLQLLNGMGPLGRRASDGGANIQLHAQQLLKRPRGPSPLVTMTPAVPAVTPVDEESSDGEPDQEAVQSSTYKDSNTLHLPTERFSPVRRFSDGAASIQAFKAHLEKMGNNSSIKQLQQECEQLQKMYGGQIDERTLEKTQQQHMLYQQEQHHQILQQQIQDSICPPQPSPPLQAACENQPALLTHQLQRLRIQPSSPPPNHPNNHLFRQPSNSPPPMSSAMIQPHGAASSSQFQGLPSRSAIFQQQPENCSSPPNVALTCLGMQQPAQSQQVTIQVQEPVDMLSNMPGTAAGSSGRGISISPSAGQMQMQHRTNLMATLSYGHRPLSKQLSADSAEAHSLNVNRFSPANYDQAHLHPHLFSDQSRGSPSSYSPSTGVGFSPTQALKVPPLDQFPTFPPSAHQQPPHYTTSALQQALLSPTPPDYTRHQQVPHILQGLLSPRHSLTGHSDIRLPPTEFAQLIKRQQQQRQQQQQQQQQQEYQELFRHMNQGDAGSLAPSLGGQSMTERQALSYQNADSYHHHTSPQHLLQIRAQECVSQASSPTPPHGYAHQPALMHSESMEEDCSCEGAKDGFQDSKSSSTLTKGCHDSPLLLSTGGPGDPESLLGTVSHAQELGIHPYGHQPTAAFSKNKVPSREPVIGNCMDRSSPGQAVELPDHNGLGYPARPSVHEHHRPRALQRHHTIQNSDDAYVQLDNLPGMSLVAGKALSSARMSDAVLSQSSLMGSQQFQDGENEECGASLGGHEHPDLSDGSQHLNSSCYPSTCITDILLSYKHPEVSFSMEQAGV
Sodium-dependent noradrenaline transporter, sequence (P23975 whole entry): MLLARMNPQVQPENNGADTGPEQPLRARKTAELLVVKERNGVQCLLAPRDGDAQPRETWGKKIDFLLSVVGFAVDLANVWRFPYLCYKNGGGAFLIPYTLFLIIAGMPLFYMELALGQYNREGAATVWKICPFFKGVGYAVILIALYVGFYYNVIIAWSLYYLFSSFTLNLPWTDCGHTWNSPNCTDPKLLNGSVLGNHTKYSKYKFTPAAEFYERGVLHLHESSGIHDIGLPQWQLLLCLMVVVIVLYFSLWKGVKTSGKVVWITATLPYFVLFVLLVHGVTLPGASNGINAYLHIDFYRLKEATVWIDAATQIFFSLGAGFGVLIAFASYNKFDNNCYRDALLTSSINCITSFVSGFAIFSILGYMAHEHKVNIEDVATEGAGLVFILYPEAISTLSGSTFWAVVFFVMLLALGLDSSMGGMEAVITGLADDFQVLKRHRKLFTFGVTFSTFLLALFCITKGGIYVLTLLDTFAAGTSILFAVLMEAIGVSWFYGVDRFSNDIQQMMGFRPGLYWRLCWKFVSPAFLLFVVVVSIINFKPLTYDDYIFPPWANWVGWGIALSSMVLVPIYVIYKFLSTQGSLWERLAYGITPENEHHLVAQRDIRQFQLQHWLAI

On to `COc1cc2c(-c3cnc(-c4ccc[nH]4)o3)c[nH]c2cc1Br`, for which the Activity in [1] amounted to 21%; in [2], 0%; in [4] it was 75%; in series [5], 31%; in series [7] it was 100%; in series [8] it was 94%. The Activity in [9] came to 0%; in [12], 0%; in [14] it was 54%; in series [16], 6%; in series [17] it was 20%. The survival at 72 h, 14 µM in series [3] was found to be 5%. Further, the pIC50 with A673 is 5.66; with BT-20, less than 4.52; in the series with SK-BR-3, 5.82; with MDA-MB-436, less than 4.52. Moreover, the “inhibition (INH)” value in series [6] is “Active”. For the same compound, the pKd in series [10] was 6.37. In [11], this compound came in with a Fu of 0.3%. Further, in series [13], the survival at 72 h, 140 µM came to 0%. In addition, the survival at 72 h, 0.1 µM in series [15] amounted to 100%.

(Values after ChEMBL document CHEMBL4334516, “Kinase Chemodiversity from the Arctic: The Breitfussins” (J Med Chem, 2019).)
